According to the Deep4Chem optical property database:
“And” between values parts separate entries of the source, which are not always exact repeats. Equal entries are not always repeated.

Experiment: photoluminescence quantum yield (fraction); solvent given as SMILES

SMILES: c1ccc2c3c(ccc2c1)-c1cccc2c1c-3cc1ccccc12
- photoluminescence quantum yield (in CCCCCCC): 0.16

SMILES: COC(=O)C(Cc1ccc2oc(-c3ccncc3)nc2c1)NC(=O)OC(C)(C)C (configuration not stated)
- photoluminescence quantum yield (in CC1CCCCC1): 0.01
- photoluminescence quantum yield (in CC#N): 0.21
- photoluminescence quantum yield (in CO): 0.4

SMILES: Cc1c(C2=[N+]3C(=Cc4c(C)c5ccccc5n4[B-]3(F)F)c3ccccc32)[nH]c2ccccc12
- photoluminescence quantum yield (in C1CCOC1): 0.04
- photoluminescence quantum yield (in CC#N): 0.04
- photoluminescence quantum yield (in CCCCCC): 0.14
- photoluminescence quantum yield (in CO): 0.03
- photoluminescence quantum yield (in Cc1ccccc1): 0.14
- photoluminescence quantum yield (in ClCCl): 0.08

SMILES: COc1ccc(-n2nc(C#N)c(N3CCCCCC3)n2)cc1
- photoluminescence quantum yield (in CC#N): 0.98

SMILES: CC(C)n1c(=O)c2cc3ccc4cccc5ccc(c2c1=O)c3c45
- photoluminescence quantum yield (in ClC(Cl)Cl): 0.49

SMILES: COc1cccc2cc(C)c3c4ccccc4n(C)c3c12
- photoluminescence quantum yield (in ClCCl): 0.215

SMILES: COc1ccccc1-c1nc2c3ccccc3c3ccccc3c2n1-c1ccc(C)cc1
- photoluminescence quantum yield (in Cc1ccccc1): 0.284

SMILES: Cc1cc(-c2ccc(-c3nc4ccccc4[nH]3)cc2)ccc1-c1ccc(-c2nc3ccccc3[nH]2)cc1
- photoluminescence quantum yield (in CN(C)C=O): 0.82

SMILES: O=S1(=O)c2ccccc2C2(c3cc(-c4ccc(-n5c6ccccc6c6ccccc65)cc4)ccc3-c3ccc(-c4ccc(-n5c6ccccc6c6ccccc65)cc4)cc32)c2ccccc21
- photoluminescence quantum yield (in ClCCl): 0.81
- photoluminescence quantum yield (in c1cc(-n2c3ccccc3c3ccccc32)cc(-n2c3ccccc3c3ccccc32)c1): 0.86

SMILES: CCCCCCN1C(=O)c2cccc3cc(/N=C\c4ccc(N5CCOCC5)cc4)cc(c23)C1=O
- photoluminescence quantum yield (in ClC(Cl)Cl): 0.089

SMILES: CC1(C)c2ccccc2-c2sc3ccccc3c21
- photoluminescence quantum yield (in ClCCl): 0.11

SMILES: N#CC1=CC(/C=C/c2ccccc2)=CC(C#N)=P1(c1ccccc1)c1ccccc1
- photoluminescence quantum yield (in ClC(Cl)Cl): 0.13

SMILES: CC1(C)C(/C=C/c2cc3ccc(O)cc3oc2=O)=[N+](CCCS(=O)(=O)[O-])c2ccc(S(=O)(=O)O)cc21
- photoluminescence quantum yield (in CCO): 0.031
- photoluminescence quantum yield (in CS(C)=O): 0.012
- photoluminescence quantum yield (in O): 0.013

SMILES: CCCCOc1ccc(-c2oc3cc4n(c3c2-c2ccc(OCCCC)cc2)[B-](F)(F)[N+]2=Cc3cc5oc(-c6ccc(OCCCC)cc6)c(-c6ccc(OCCCC)cc6)c5n3[B-](F)(F)[N+]2=C4)cc1
- photoluminescence quantum yield (in C1CCOC1): 0.44
- photoluminescence quantum yield (in CN(C)C=O): 0.32
- photoluminescence quantum yield (in CS(C)=O): 0.31
- photoluminescence quantum yield (in Cc1ccccc1): 0.42
- photoluminescence quantum yield (in ClC(Cl)Cl): 0.43
- photoluminescence quantum yield (in ClCCl): 0.43

SMILES: N#Cc1c(-n2c3ccccc3c3ccccc32)c(-n2c3ccccc3c3ccccc32)c(-n2c3ccccc3c3ccccc32)c(-n2c3ccc(-c4ccccc4)cc3c3cc(-c4ccccc4)ccc32)c1-n1c2ccccc2c2ccccc21
- photoluminescence quantum yield (in Cc1ccccc1): 0.85

SMILES: COc1ccc(-n2nc(C#N)c(N3CCC(N4CCCCC4)CC3)n2)cc1
- photoluminescence quantum yield (in CC#N): 0.156

SMILES: C(=C\c1ccc(N(c2ccc(/C=C/c3ccc(-c4cc(-c5ccccc5)nc(-c5ccccc5)c4)cc3)cc2)c2ccc(/C=C/c3ccc(-c4cc(-c5ccccc5)nc(-c5ccccc5)c4)cc3)cc2)cc1)/c1ccc(-c2cc(-c3ccccc3)nc(-c3ccccc3)c2)cc1
- photoluminescence quantum yield (in C1CCOC1): 0.08
- photoluminescence quantum yield (in Cc1ccccc1): 0.14

SMILES: CCCCCCCCC1(CCCCCCCC)c2cc(-c3ccc(C(=O)OC)cc3)ccc2-c2ccc(-c3ccc(C(=O)OC)cc3)cc21
- photoluminescence quantum yield (in ClC(Cl)Cl): 0.94

SMILES: COc1ccc(/C=C/c2cc(/C=C/c3ccc(N(c4ccccc4)c4ccccc4)cc3)nc(/C=C/c3ccc(N(C)C)cc3)n2)cc1
- photoluminescence quantum yield (in ClCCl): 0.02

SMILES: Cc1nc2c(ccc3ccc(O)cc32)oc1=O
- photoluminescence quantum yield (in c1ccccc1): 0.358

SMILES: CC1(C)[C@@H]2CC[C@]1(C)c1nc3cc(-c4cccs4)ccc3nc12
- photoluminescence quantum yield (in CC#N): 0.06
- photoluminescence quantum yield (in CCCCO): 0.35
- photoluminescence quantum yield (in CCO): 0.37
- photoluminescence quantum yield (in CCOC(C)=O): 0.02
- photoluminescence quantum yield (in CO): 0.52
- photoluminescence quantum yield (in Cc1ccccc1): 0.01
- photoluminescence quantum yield (in ClC(Cl)Cl): 0.11
- photoluminescence quantum yield (in ClCCl): 0.05

SMILES: CC(C)(C)c1ccc2oc(-c3ccc(-c4nc5cc(C(C)(C)C)ccc5o4)s3)nc2c1
- photoluminescence quantum yield (in C1CCCCC1): 0.8
- photoluminescence quantum yield (in C1CCOC1): 0.78
- photoluminescence quantum yield (in CC1CCCCC1): 0.66
- photoluminescence quantum yield (in CC#N): 0.76
- photoluminescence quantum yield (in CCCCO): 1
- photoluminescence quantum yield (in CCO): 1
- photoluminescence quantum yield (in CN(C)C=O): 0.87
- photoluminescence quantum yield (in Cc1ccccc1): 1
- photoluminescence quantum yield (in Clc1ccccc1Cl): 0.96
- photoluminescence quantum yield (in c1ccccc1): 0.82

SMILES: COc1ccc(-c2cc3c(ccc4sccc43)s2)cc1
- photoluminescence quantum yield (in ClCCl): 0.55

SMILES: F[B-]1(F)n2c(c(-c3ccccc3)c3c2C2=Cc4ccccc4OC2CC3)C=C2C(c3ccccc3)=C3CCC4Oc5ccccc5C=C4C3=[N+]21 (configuration not stated)
- photoluminescence quantum yield (in ClC(Cl)Cl): 0.06

SMILES: CC(C)(C)C#Cc1ccc2c3cccc4cccc(c5cccc1c52)c43
- photoluminescence quantum yield (in C1CCCCC1): 0.91

SMILES: C(=C\c1ccc(-c2nc3c4cccnc4c4ncccc4c3[nH]2)cc1)/c1ccncc1
- photoluminescence quantum yield (in C1CCOC1): 0.54
- photoluminescence quantum yield (in CC#N): 0.32
- photoluminescence quantum yield (in CO): 0.19
- photoluminescence quantum yield (in ClCCl): 0.48

SMILES: COc1ccc(-c2oc3cccc4c5c(-c6ccc(OC)c(OC)c6)c(=N)oc6cccc(c2c34)c65)cc1OC
- photoluminescence quantum yield (in ClC(Cl)Cl): 0.41

SMILES: N#Cc1c(-n2c3ccccc3c3ccccc32)c(-n2c3ccccc3c3ccccc32)c(-n2c3ccccc3c3ccccc32)c(-n2c3ccccc3c3ccccc32)c1-n1c2ccccc2c2ccccc21
- photoluminescence quantum yield (in Cc1ccccc1): 0.75 and 0.7
- photoluminescence quantum yield (in c1cc(-c2cccc(-n3c4ccccc4c4ccccc43)c2)cc(-n2c3ccccc3c3ccccc32)c1): 0.65

SMILES: CCCCCCN1C(=O)c2cccc3c(-c4ccc(-c5cc(-c6ccc(Cl)cc6)n(-c6ccccc6)n5)s4)ccc(c23)C1=O
- photoluminescence quantum yield (in ClCCl): 0.33

SMILES: Cc1ccc2cc3cc(C)ncc3cc2c1
- photoluminescence quantum yield (in CCO): 0.48

SMILES: c1ccc(N(c2ccccc2)c2ccc(-c3ncc(-c4ccc(-c5ccc(-c6cnc(-c7ccc(N(c8ccccc8)c8ccccc8)cc7)s6)s5)s4)s3)cc2)cc1
- photoluminescence quantum yield (in CO): 0.16

SMILES: CCCCn1c2c(-c3ccc(N(c4ccccc4)c4ccccc4)cc3)cc(C#N)cc2c2cc(C#N)cc(-c3ccc(N(c4ccccc4)c4ccccc4)cc3)c21
- photoluminescence quantum yield (in ClCCl): 0.6

SMILES: CCCCCCOc1ccc(C#Cc2ccc(-c3ccc(-c4ccc(C#Cc5ccc(OCCCCCC)c(OCCCCCC)c5)s4)c4nsnc34)s2)cc1OCCCCCC
- photoluminescence quantum yield (in C1CCCCC1): 0.54
- photoluminescence quantum yield (in CCOC(C)=O): 0.46
- photoluminescence quantum yield (in CN(C)C=O): 0.24
- photoluminescence quantum yield (in COc1ccccc1): 0.48
- photoluminescence quantum yield (in Cc1ccccc1): 0.55
- photoluminescence quantum yield (in ClC(Cl)Cl): 0.43
- photoluminescence quantum yield (in ClCCCl): 0.34
- photoluminescence quantum yield (in ClCCl): 0.35

SMILES: CCc1ccc(-c2ccc(-c3nnc(-c4ccc(-c5nnc(-c6ccc(-c7ccc(CC)cc7)s6)o5)cc4)o3)s2)cc1
- photoluminescence quantum yield (in ClC(Cl)Cl): 0.6

SMILES: COc1ccc(C2=[N+]3C(=Nc4c(-c5ccccc5)c5c(n4[B-]3(F)F)-c3ccc(OC)cc3CC5)C(c3ccccc3)=C2)cc1
- photoluminescence quantum yield (in ClC(Cl)Cl): 0.38

SMILES: CCCCCN(c1ccccc1)c1ccc2c(c1)C(CC)(CC)c1cc(/C=C/c3ccc(/C=C(\C#N)C(=O)O)s3)ccc1-2
- photoluminescence quantum yield (in C1CCOC1): 0.405
- photoluminescence quantum yield (in C1COCCO1): 0.969
- photoluminescence quantum yield (in CC#N): 0.025
- photoluminescence quantum yield (in CC(C)=O): 0.223
- photoluminescence quantum yield (in CCOC(C)=O): 0.801
- photoluminescence quantum yield (in CN(C)C=O): 0.651
- photoluminescence quantum yield (in CS(C)=O): 0.622
- photoluminescence quantum yield (in ClCCl): 0.005

SMILES: CC1(C)C(/C=C/C2=C(c3ccc(C(=O)O)cc3)C(=C/C=C3/N(CCCCS(=O)(=O)[O-])c4ccc(S(=O)(=O)[O-])cc4C3(C)C)/CCC2)=[N+](CCCCS(=O)(=O)[O-])c2ccc(S(=O)(=O)[O-])cc21
- photoluminescence quantum yield (in CO): 0.1

SMILES: CN(C)c1ccc(-c2cc3c(s2)c(C(=O)c2ccccc2)cc(=O)n3Cc2ccccc2)cc1
- photoluminescence quantum yield (in ClCCl): 0.01

SMILES: c1ccc(-c2nc(-c3ccc(N4c5ccccc5C(c5ccccc5)(c5ccccc5)c5ccccc54)cc3)cc(-c3ccccn3)n2)cc1
- photoluminescence quantum yield (in O=P(c1ccccc1)(c1ccccc1)c1ccccc1Oc1ccccc1P(=O)(c1ccccc1)c1ccccc1): 0.83

SMILES: CN1c2cc3nc4cc(Cl)c(Cl)cc4nc3cc2N(C)C1(C)C
- photoluminescence quantum yield (in CCO): 0.7

SMILES: Cc1ccc(/C=C/c2ccccc2-[n+]2noc([O-])c2-c2ccccc2)cc1
- photoluminescence quantum yield (in C1CCCCC1): 0.0018
- photoluminescence quantum yield (in CC#N): 0.0048

SMILES: COc1ccc(OC)c(C2=C3C=CC(=[N+](C)C)C=C3[Si](C)(C)c3cc(N(C)C)ccc32)c1
- photoluminescence quantum yield (in O): 0.025

SMILES: CC[N+](CC)=c1ccc2c(C(F)(F)F)c3oc4cc(N)ccc4c3oc-2c1
- photoluminescence quantum yield (in CCO): 0.064
- photoluminescence quantum yield (in ClCCl): 0.157
- photoluminescence quantum yield (in O): 0.014

SMILES: Cc1ccc(/C2=c3\cc/c(o3)=C(\c3ccc(C)cc3)c3ccc([nH]3)-c3ccc4n3[P-](=O)(=O)[N+]3=C(C=CC3=C4c3ccc[nH]3)c3ccc2[nH]3)cc1
- photoluminescence quantum yield (in ClC(Cl)Cl): 0.15

SMILES: c1ccc2nc3cccc(-c4ccc(-n5c6ccccc6c6ccccc65)cc4)c3cc2c1
- photoluminescence quantum yield (in CC#N): 0.325
- photoluminescence quantum yield (in CCCCCC): 0.0319
- photoluminescence quantum yield (in CCOCC): 0.102
- photoluminescence quantum yield (in ClCCl): 0.253

SMILES: O=C1c2ccccc2C2=C(c3ccccn3)NN=C(c3ccccn3)C2c2ccccc21 (configuration not stated)
- photoluminescence quantum yield (in CC#N): 0.41

SMILES: c1csc(-c2ccc(-c3cccs3)s2)c1
- photoluminescence quantum yield (in CC#N): 0.09
- photoluminescence quantum yield (in ClCCl): 0.05

SMILES: CC1(C)CC(NCc2ccc3ccc4cccc5ccc2c3c45)CC(C)(C)N1[O]
- photoluminescence quantum yield (in C1CCCCC1): 0.07
- photoluminescence quantum yield (in CC#N): 0.03
- photoluminescence quantum yield (in CO): 0.04
- photoluminescence quantum yield (in ClC(Cl)Cl): 0.02

SMILES: O=C1/C(=C2\Nc3cc4ccc5cccc6ccc(c3C2=O)c4c56)Nc2cc3ccc4cccc5ccc(c21)c3c45
- photoluminescence quantum yield (in C1CCOC1): 0.0076

SMILES: O=C1OC(=O)C2=C1S[C@]13C2=C[C@H](c2ccccc21)c1ccccc13
- photoluminescence quantum yield (in ClCCl): 0.95

SMILES: CCCCC(CC)Cn1c2cc(C#N)ccc2c2cc(-c3ccc(N(c4ccccc4)c4ccccc4)cc3)c(C#N)cc21 (configuration not stated)
- photoluminescence quantum yield (in ClCCl): 0.31

SMILES: COc1ccc2cc(C#CC3=C4CCc5ccccc5C4=[O+][B-](F)(F)O3)ccc2c1
- photoluminescence quantum yield (in ClCCl): 0.16
